In patent US8173689B2 (Novartis AG, priority 2006, dated 2012):
Like-named read-outs stand apart in the source and are kept apart here.

Columns and labels:
[1] = molecular target: T1, cytoplasmic domain of the human CSF-1R (Homo sapiens, UniProt P07333); test: In vitro kinase assay for colony stimulating factor-1 receptor (AlphaScreen); assay type: biochemical; details: tested at about 1 μM, read-out: CSF-1R percent inhibition
T1 construct: Recombinant protein corresponding to the cytoplasmic domain of the human CSF-1R; purchased Invitrogen Corporation, Carlsbad, Calif; PV3249
T1 sequence (P07333 539-972 limits assumed): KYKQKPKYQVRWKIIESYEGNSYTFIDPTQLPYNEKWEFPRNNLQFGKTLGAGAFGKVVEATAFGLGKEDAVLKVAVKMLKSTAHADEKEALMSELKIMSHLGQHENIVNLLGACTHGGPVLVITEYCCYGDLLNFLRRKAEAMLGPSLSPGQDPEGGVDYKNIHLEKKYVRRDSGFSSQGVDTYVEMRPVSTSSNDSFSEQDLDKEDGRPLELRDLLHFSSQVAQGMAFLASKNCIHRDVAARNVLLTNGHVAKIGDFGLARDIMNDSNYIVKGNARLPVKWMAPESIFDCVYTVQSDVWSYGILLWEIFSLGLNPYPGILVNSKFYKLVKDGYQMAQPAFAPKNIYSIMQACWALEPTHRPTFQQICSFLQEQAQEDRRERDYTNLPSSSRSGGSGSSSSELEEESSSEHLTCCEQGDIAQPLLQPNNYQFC
How it was run: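 4 nM enzyme, 1 μM ATP; buffer 50 mM Hepes pH 7.5, 5 mM MgCl2, 10 mM MnCl2, 1.0 mM DTT, 0.1% BSA, 0.01% Tween 80. Readout: AlphaScreen, PT66 acceptor/streptavidin donor, overnight.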

kinase domain of PDGFRβ = molecular target: T2, kinase domain of PDGFRβ (Homo sapiens, UniProt P09619); test: Inhibition of PDGFRb kinase signaling in an in vitro biochemical assay (alphascreen); details: tested at about 1 μM, read-out: PDGFRβ percent inhibition
T2 construct: The kinase domain of PDGFRβ was assayed in 50 mM Hepes; purchased Invitrogen P3082

[2] = test system: MNFS60 (murine AML cells); test: Cell viability assay in MCSF dependent MNFS60 cells (Cell Titer Glo); assay type: cell-based; details: Mus musculus, tested at about 1 μM, read-out: M-NFS-60 CP percent inhibition
How it was run: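 Compounds were serially diluted 3-fold in DMSO to 500× final and added to cells with MCSF at 10 ng/ml final. After 72 hrs at 37° C. under 5% CO2, viable cells were quantified by CellTiter-Glo luminescence; triplicate wells gave EC50 values by curve fitting.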

[3] = molecular target: T3, full-length human CSF-1R receptor (Homo sapiens, UniProt P07333); test: In vitro inhibition of CSF-1R receptor tyrosine phosphorylation in transfected HEK293H cells stimulated with MCSF; assay type: cell-based; details: HEK293-H, tested at about 1 μM, read-out: pCSF1R percent inhibition
T3 construct: transfected with the full-length human CSF-1R receptor cloned in house; expressed in transfected cells; host or cells: HEK293H (Invitrogen Cat. #11631017)
Procedure: The lysate was then transferred to total CSF-1R antibody coated 96-well plates that had already been blocked with 3% Blocker A from Mesoscale discovery (MSD) for 2 hours and washed afterwards. Lysates were incubated overnight at 4° C. and the plates were then washed 4× with MSD Tris Wash Buffer. […] The plates were read on the Sector 6000 instrument (MSD). Raw data was imported in Abase and EC50s calculated with XL-fit data analysis software.

kinase domain of cKIT = molecular target: T4, kinase domain of cKIT (Homo sapiens, UniProt P10721); test: Inhibition of cKIT kinase signaling in an in vitro biochemical assay (alphascreen); details: tested at about 1 μM, read-out: cKit percent inhibition
T4 construct: The kinase domain of cKIT was assayed in 50 mM Hepes; purchased Upstate 14-559
T4 sequence (P10721 589-937 limits assumed): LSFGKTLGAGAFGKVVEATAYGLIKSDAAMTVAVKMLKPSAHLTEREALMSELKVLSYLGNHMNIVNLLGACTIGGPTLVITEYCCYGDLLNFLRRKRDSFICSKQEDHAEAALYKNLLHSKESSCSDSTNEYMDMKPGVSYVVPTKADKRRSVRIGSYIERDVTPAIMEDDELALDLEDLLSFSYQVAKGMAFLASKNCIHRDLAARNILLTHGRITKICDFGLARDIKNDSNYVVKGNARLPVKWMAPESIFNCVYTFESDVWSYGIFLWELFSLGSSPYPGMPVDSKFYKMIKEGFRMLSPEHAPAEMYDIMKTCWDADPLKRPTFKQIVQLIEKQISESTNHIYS

T2 sequence (P09619 600-962 limits assumed): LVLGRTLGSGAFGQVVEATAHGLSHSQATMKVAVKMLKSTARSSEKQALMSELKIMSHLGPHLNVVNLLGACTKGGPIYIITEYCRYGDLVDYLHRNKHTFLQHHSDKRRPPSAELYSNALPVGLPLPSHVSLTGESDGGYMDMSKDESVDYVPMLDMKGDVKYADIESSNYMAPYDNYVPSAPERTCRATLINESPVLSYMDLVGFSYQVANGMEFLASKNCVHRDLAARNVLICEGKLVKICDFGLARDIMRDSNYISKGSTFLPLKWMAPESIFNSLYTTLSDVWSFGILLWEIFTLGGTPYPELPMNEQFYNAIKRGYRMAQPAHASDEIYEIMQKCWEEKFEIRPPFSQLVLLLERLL
T3 sequence (P07333 20-972): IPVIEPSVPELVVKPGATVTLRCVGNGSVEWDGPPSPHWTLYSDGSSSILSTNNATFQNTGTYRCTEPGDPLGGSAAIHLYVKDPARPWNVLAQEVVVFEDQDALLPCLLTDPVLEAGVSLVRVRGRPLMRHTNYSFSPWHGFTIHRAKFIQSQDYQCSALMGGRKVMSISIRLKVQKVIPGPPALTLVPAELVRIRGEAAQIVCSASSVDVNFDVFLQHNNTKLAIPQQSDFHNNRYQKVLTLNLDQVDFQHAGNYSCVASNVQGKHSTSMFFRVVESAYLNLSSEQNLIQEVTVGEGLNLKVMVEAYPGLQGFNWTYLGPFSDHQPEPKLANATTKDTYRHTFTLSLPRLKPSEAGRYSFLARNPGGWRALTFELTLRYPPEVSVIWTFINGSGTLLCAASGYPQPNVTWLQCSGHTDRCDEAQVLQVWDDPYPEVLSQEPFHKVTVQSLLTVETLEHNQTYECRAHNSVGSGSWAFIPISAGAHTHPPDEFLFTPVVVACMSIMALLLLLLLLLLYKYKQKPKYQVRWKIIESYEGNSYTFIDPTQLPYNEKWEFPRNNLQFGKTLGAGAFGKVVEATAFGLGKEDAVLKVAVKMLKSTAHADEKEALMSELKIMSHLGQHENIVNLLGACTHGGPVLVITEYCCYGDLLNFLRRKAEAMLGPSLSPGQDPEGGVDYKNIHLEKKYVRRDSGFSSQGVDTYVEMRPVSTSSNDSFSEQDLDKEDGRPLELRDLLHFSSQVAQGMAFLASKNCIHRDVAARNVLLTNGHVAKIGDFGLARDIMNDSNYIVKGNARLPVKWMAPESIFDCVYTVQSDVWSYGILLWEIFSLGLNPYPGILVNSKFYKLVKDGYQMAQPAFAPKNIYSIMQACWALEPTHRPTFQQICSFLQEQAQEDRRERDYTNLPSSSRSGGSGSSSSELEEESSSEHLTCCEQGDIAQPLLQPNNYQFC

SMILES | inhibition at 1 µM [1] [%] | inhibition at 1 µM (kinase domain of PDGFRβ) [%] | inhibition at 1 µM ([3]; HEK293H cells) [%] | inhibition at 1 µM (kinase domain of cKIT) [%] | inhibition at 1 µM ([1]; compounds of Table 3) [%] | inhibition at 1 µM (kinase domain of PDGFRβ; compounds of Table 3) [%] | inhibition at 1 µM ([3]; compounds of Table 3) [%] | inhibition at 1 µM (kinase domain of cKIT; compounds of Table 3) [%] | inhibition at 1 µM ([2]; MCSF dependent MNFS60 cells) [%] | inhibition at 1 µM ([2]; MNFS60 cells) [%] | inhibition at 1 µM ([2]; compounds of Table 3) [%]
CNC(=O)c1cc(Oc2ccc3nc(N[C@@H]4CCCC[C@H]4NS(C)(=O)=O)sc3c2)ccn1 [Example 326, N-methyl-4-(2-((1R,2R)-2-(methylsulfonamido)cyclo-hexylamino)benzo[d]thiazol-6-yloxy)picolinamide] | 65 | 7 | 81 | 44 | – | – | – | – | 33 | – | –
CNC(=O)c1cc(Oc2ccc3nc(NCc4ccccc4-n4cccn4)oc3c2)ccn1 [Compound 105, 4-[2-(2-Pyrazol-1-yl-benzyl-amino)-benzooxazol-6-yloxy]-pyridine-2-carboxylic acid methylamide] | 99 | 8 | 70 | 22 | – | – | – | – | – | 49 | –
CNC(=O)c1cc(Oc2ccc3nc(NCc4ccc(=O)[nH]c4)sc3c2)ccn1 [Compound 89] | – | – | – | – | 100 | 2 | 65 | 15 | – | – | 15
CNC(=O)c1cc(Oc2ccc3nc(NCc4cccc5c4OCCO5)oc3c2)ccn1 [Compound 65, 4-{2-[(2,3-Dihydro-benzo-[1,4]dioxin-5-ylmethyl)-amino]-benzooxazol-6-yloxy}-pyridine-2-carboxylic acid methylamide] | 99 | 38 | 97 | 98 | – | – | – | – | – | 100 | –
CNC(=O)c1cc(Oc2ccc3nc(Nc4cccc(OC)c4)sc3c2)ccn1 [Compound 32] | – | – | – | – | 100 | 11 | 93 | 45 | – | – | 65
CNC(=O)c1cc(Oc2ccc3nc(N[C@H](CO)C4CCCCC4)oc3c2)ccn1 [Compound 66, 4-[2-((S)-1-Cyclohexyl-02-hydroxy-ethylamino)-benzo-oxazol-6-yloxy]-pyridine-2-carboxylic acid methylamide] | 100 | 37 | 37 | 55 | – | – | – | – | – | 18 | –
CNC(=O)c1cc(Oc2ccc3nc(NCc4cccc(F)c4F)sc3c2)ccn1 [Compound 147, 4-[2-(2,3-Difluoro-benzylamino)-benzothiazol-6-yloxy]-pyridine-2-carboxylic acid methylamide] | 98 | 0 | 97 | 90 | – | – | – | – | – | 90 | –
CNC(=O)c1cc(Oc2ccc3nc(N[C@@H]4C[C@H]5CC[C@@H]4C5)sc3c2)ccn1 [Compound 128] | – | – | – | – | 100 | 20 | 88 | 29 | – | – | 82
CNC(=O)c1cc(Oc2ccc3nc(NCc4c(F)cccc4F)sc3c2)ccn1 [Compound 149, 4-[2-(2,6-Difluoro-benzylamino)-benzothiazol-6-yloxy]-pyridine-2-carboxylic acid methylamide] | 99 | 0 | 92 | 4 | – | – | – | – | – | 67 | –
c1ccc2c(Oc3ccc4nc(NC5CCCCC5)sc4c3)ccnc2c1 [Example 256, N-cyclohexyl-6-(quinolin-4-yloxy)benzo[d]thiazol-2-amine] | – | – | – | – | 100 | 3 | 87 | 71 | – | – | 87

Second part, led by results:

inhibition at 1 µM [1] [%] | inhibition at 1 µM (kinase domain of PDGFRβ) [%] | inhibition at 1 µM ([3]; HEK293H cells) [%] | inhibition at 1 µM (kinase domain of cKIT) [%] | inhibition at 1 µM ([1]; compounds of Table 3) [%] | inhibition at 1 µM (kinase domain of PDGFRβ; compounds of Table 3) [%] | inhibition at 1 µM ([3]; compounds of Table 3) [%] | inhibition at 1 µM (kinase domain of cKIT; compounds of Table 3) [%] | SMILES | inhibition at 1 µM ([2]; MCSF dependent MNFS60 cells) [%] | inhibition at 1 µM ([2]; MNFS60 cells) [%] | inhibition at 1 µM ([2]; compounds of Table 3) [%]
100 | 41 | 97 | 52 | – | – | – | – | CNC(=O)c1cc(Oc2ccc3nc(N[C@H]4c5ccccc5C[C@H]4O)sc3c2)ccn1 [Example 321, 4-(2-((1S,2R)-2-hydroxy-2,3-dihydro-1H-inden-1-ylamino)benzo[d]thiazol-6-yloxy)-N-methylpicolinamide] | 82 | – | –
100 | 16 | 98 | 29 | – | – | – | – | O[C@@H]1CCCC[C@H]1Nc1nc2ccc(Oc3ccnc(-c4cn[nH]c4)c3)cc2s1 [Example 360, (1R,2R)-2-(6-(2-(1H-pyrazol-4-yl)pyridin-4-yloxy)benzo[d]thiazol-2-ylamino)cyclohexanol] | 100 | – | –
100 | 41 | 16 | 27 | – | – | – | – | CNC(=O)c1cc(Oc2ccc3nc(N[C@H]4CCCC[C@@H]4OCc4ccccc4)sc3c2)ccn1 [Compound 156, 4-[2-((1S,2S)-2-Benzyloxy-cyclohexylamino)-benzothiazol-6-yloxy]-pyridine-2-carboxylic acid methylamide] | – | 63 | –
100 | 20 | 95 | 81 | – | – | – | – | CNC(=O)c1cc(Oc2ccc3nc(NCc4ccccc4Cl)sc3c2)ccn1 [Compound 127, 4-[2-(2-Chloro-benzylamino)-benzothiazol-6-yloxy]-pyridine-2-carboxylic acid methylamide] | – | 95 | –
100 | 0 | 84 | 13 | – | – | – | – | Nc1ncc(-c2cc(Oc3ccc4nc(N[C@@H]5CCCC[C@H]5O)sc4c3)ccn2)cn1 [Example 346, (1R,2R)-2-(6-(2-(2-aminopyrimidin-5-yl)pyridin-4-yloxy)benzo[d]thiazol-2-ylamino)cyclohexanol] | 67 | – | –
99 | 3 | 92 | 53 | – | – | – | – | CNC(=O)c1cc(Oc2ccc3nc(NCCc4ccccc4)sc3c2)ccn1 [Compound 133, 4-(2-Phenethylamino-benzo-thiazol-6-yloxy)-pyridine-2-carboxylic acid methylamide] | – | 45 | –
99 | 58 | 98 | 98 | – | – | – | – | CNC(=O)c1cc(Oc2ccc3nc(NCc4ccccc4OC)sc3c2)ccn1 [Compound 132, 4-[2-(2-Methoxy-benzylamino)-benzothiazol-6-yloxy]-pyridine-2-carboxylic acid methylamide] | – | 100 | –
100 | 24 | 91 | 93 | – | – | – | – | CNC(=O)c1cc(Oc2ccc3nc(NCCc4ccccc4Cl)sc3c2)ccn1 [Example 319, 4-(2-(2-chlorophenylethylamino)benzo[d]thiazol-6-yloxy)-N-methylpicolinamide] | 61 | – | –
100 | 55 | 90 | 47 | – | – | – | – | Cn1cc(-c2cc(Oc3ccc4nc(N[C@@H]5c6ccccc6C[C@@H]5O)sc4c3)ccn2)cn1 [Example 348, (1R,2S)-1-(6-(2-(1-methyl-1H-pyrazol-4-yl)pyridin-4-yloxy)benzo[d]thiazol-2-ylamino)-2,3-dihydro-1H-inden-2-ol] | 100 | – | –
– | – | – | – | 100 | 39 | 99 | 32 | C[C@H](Nc1nc2ccc(Oc3ccnc(-c4cnn(C)c4)c3)cc2s1)C1CCCCC1 [Cmpd 163, (S)-N-(1-cyclohexylethyl)-6-(2-(1-methyl-1H-pyrazol-4-yl)pyridin-4-yloxy)benzo[d]thiazol-2-amine] | – | – | 100
